The conditions of series [1]: background statement, cited from earlier work; for solubility in alcohol: alcohol(s).
A short description of series [2]: solubility in water, alcohols and methylene chloride. The conditions noted are these: description of product and starting materials. In kind it is physicochemical.

Structures can show the parent of a compound that is named as a salt. Where two headings read alike, the source gives them in different places.

Turning to `CCN(CC)CCOCCOC(=O)C1(c2ccccc2)CCCC1` [carbetapentane citrate], in series [1], the solubility in alcohol entry is on record as “slightly soluble” and the solubility in water result is on record as “freely soluble”.
As for `CCN(CC)CCOCCOC(=O)C1(c2ccccc2)CCCC1` [carbetapentane, 2-(diethylaminoethoxy)ethyl-1-phenyl-1-cyclopentanecarboxylate], in series [2], the solubility in alcohols result is reported as “soluble”, the “solubility in methylene chloride” value is “soluble” and the solubility in water entry was “insoluble”. The solubility in water result in series [1] is given as “insolubility”.
As for `O=C(OC[C@H]1O[C@@H](OC(=O)c2cc(O)c(O)c(OC(=O)c3cc(O)c(O)c(O)c3)c2)[C@H](OC(=O)c2cc(O)c(O)c(OC(=O)c3cc(O)c(O)c(O)c3)c2)[C@@H](OC(=O)c2cc(O)c(O)c(OC(=O)c3cc(O)c(O)c(O)c3)c2)[C@@H]1OC(=O)c1cc(O)c(O)c(OC(=O)c2cc(O)c(O)c(O)c2)c1)c1cc(O)c(O)c(OC(=O)c2cc(O)c(O)c(O)c2)c1` [tannic acid], in series [2], the solubility in alcohols result is “soluble”, the “solubility in methylene chloride” value is recorded as “insoluble” and the solubility in water result is “soluble”. In series [1], the solubility in alcohol entry was “highly soluble” and the solubility in water result was “highly soluble”.
For carbetapentane tannate, in series [2], the solubility in alcohols entry is “soluble”, the “solubility in methylene chloride” value is “insoluble” and the solubility in water entry is reported as “slightly soluble”.
